{
  "source": "patent US4072751A",
  "about": "“Pesticidal N-substituted bis-carbamoyl sulfide compounds” (priority 1976, dated 1978)",
  "key": {"[1]": {"system": "bean aphid (Aphis Fabae Scop.)", "test": "Bean Aphid Foliage Spray Test", "assay_type": "in vivo", "parameters": "key: A: excellent control; B: partial control; C: no control", "settings": "500 parts of test compound per million parts of final formulation; 24 hour", "description": "(§1) Suspensions of the test compounds were prepared by dissolving one gram of compound in 50 milliliters of acetone in which had been dissolved 0.1 gram (10 percent of the weight of compound) of an alkylphenoxy polyethoxyethanol surfactant, as an emulsifying or dispersing agent. The resulting solution was mixed into 150 milliliters of water to give roughly 200 milliliters of a suspension containing the compound in finely divided form. The thus-prepared stock suspension contained 0.5 percent by weight of test compound. The test concentrations in parts per million by weight employed in the tests described hereinbelow were obtained by appropriate dilutions of the stock suspension with water. The test procedures were as follows:\nAdults and nymphal stages of the bean aphid (Aphis Fabae Scop.) reared on potted dwarf nasturtium plants at 65°-70° F and 50-70 percent relative humidity, constituted the test insects. For testing purposes, the number of aphids per pot was standardized to 100-150 by trimming plants containing excess aphids.\nThe test compounds were formulated by diluting the stock suspension with water to give a suspension containing 500 parts of test compound per million parts of final formulation.\nThe potted plants (one pot per compound tested) infested with 100-150 aphids, were placed on a revolving turntable and sprayed with 100-110 milliliters of test compound formulation by use of a DeVilbiss spray gun set at 40 psig. air pressure. This application, which lasted 25 seconds, was sufficient to wet the plants to run-off. As a control, 100-110 milliliters of a water-acetone-emulsifier solution containing no test compound were also sprayed on infested plants. After spraying, the pots were placed on their sides on a sheet of white standard mimeograph paper which had been previously ruled to facilitate counting. Temperature and humidity in the test room during the 24 hour holding period were 65°-70° F. and 50-70 percent, respectively. Aphids which fell onto the paper and were unable to remain standing after being uprighted were considered dead. Aphids remaining on the plants were observed closely for movement and those which were unable to move the length of the body upon stimulator by prodding were considered dead. Percent mortality was recorded for various concentration levels.\n(§2) In these tests the pesticidal activity of the compounds against aphid, mite, Southern Armyworm, Mexican Bean Beetle, and house fly was rated as follows: […]"}, "[2]": {"system": "two-spotted mite (Tetranychus urticae Koch)", "test": "Mite Foliage Spray Test", "assay_type": "in vivo", "parameters": "key: A: excellent control; B: partial control; C: no control", "settings": "500 parts of test compound per million parts of final formulation; 6 days", "description": "as §1\nAdults and nymphal stages of the two-spotted mite (Tetranychus urticae Koch), reared on Tendergreen bean plants at 80±5 percent relative humidity, were the test organisms. Infested leaves from a stock culture were placed on the primary leaves of two bean plants 6 to 8 inches in height, growing in a 21/2 inch clay pot. 150-200 Mites, a sufficient number for testing, transferred from the excised leaves to the fresh plants in a period of 24 hours. Following the 24 hour transfer period, the excised leaves were removed from the infested plants. The test compounds were formulated by diluting the stock suspension with water to give a suspension with water to give a suspension containing 500 parts of test compound per million parts of final formulation. The potted plants (one pot per compound) were placed on a revolving turntable and sprayed with 100-110 milliliters of test compound formulation by use of a DeVilbiss spray gun set at 40 psig. air pressure. This application, which lasted for 25 seconds was sufficient to wet the plants to run-off. As a control, 100-110 milliliters of a water solution containing acetone and emulsifier in the same concnetrations as the test compound formulation, but containing no test compound, were also sprayed on infested plants. The sprayed plants were held at 80±5 percent relative humidity for 6 days, after which a mortality count of motile forms was made. Microscopic examination for motile forms was made on the leaves of the test plants. Any individual which was capable of locomotion upon prodding, was considered living.\nas §2"}, "[3]": {"system": "southern armyworm (Prodenia Eridania, (Cram.))", "test": "Southern Armyworm Leaf Spray Test", "assay_type": "in vivo", "parameters": "key: A: excellent control; B: partial control; C: no control", "settings": "larvae; 500 parts of test compound per million parts of final formulation; 3 days", "description": "as §1\nLarvae of the southern armyworm (Prodenia Eridania, (Cram.), reared on Tendergreen bean plants at a temperature of 80±5° F. and relative humidity of 50±5 percent, constituted the test insects.\nThe test compounds were formulated by diluting the stock suspension with water to give a suspension containing 500 parts of test compound per million parts of final formulation. Potted Tendergreen bean plants of standard height and age were placed on a revolving turntable and sprayed with 100-110 milliliters of test compound formulation by use of a DeVilbiss spray gun set at 10 psig. air pressure.\nThis application which lasted 25 seconds was sufficient to wet plants to run-off. As a control, 100-110 milliliters of a water-acetone-emulsifier solution containing no test compound were also sprayed on infested plants. When dry, the paired leaves were separated and each one was placed in a 9 centimeter Petri dish lined with moistened filter paper. Five randomly selected larvae were introduced into each dish and the dishes were closed. The closed dishes were labeled and held at 80°-85° F. for 3 days. Although the larvae could easily consume the whole leaf within 24 hours, no more food was added. Larvae which were unable to move the length of the body, even upon stimulation by prodding, were considered dead. Percent mortality was recorded for various concentration levels.\nas §2"}, "[4]": {"system": "Mexican bean beetle (Epilachna varivestis, Muls.)", "test": "Mexican Bean Beetle Leaf Spray Test", "assay_type": "in vivo", "parameters": "key: A: excellent control; B: partial control; C: no control", "settings": "fourth instar larvae; 500 parts of test compound per million parts of final formulation; 3 days", "description": "as §1\nFourth instar larvae of the Mexican bean beetle (Epilachna varivestis, Muls.) reared on Tendergreen bean plants at a temperature of 80±5° and 50±5 percent relative humidity, were the test insects.\nThe test compounds were formulated by diluting the stock suspension with water to give a suspension containing 500 parts of test compound per million parts of final formulation. Potted Tendergreen bean plants of standard height and age were placed on a revolving turntable and sprayed with 100-110 milliliters of test compound formulation by use of a DeVilbiss spray gun set at 10 psig air pressure. This application, which lasted 25 seconds was sufficient to wet plants to run-off. As a control, 100-110 milliliters of a water-acetone-emulsifier solution containing no test compound were also sprayed on infested plants. When dry, the paired leaves were separated and each was placed in a 9 centimeter Petri dish lined with moistened filter paper. Five randomly selected larvae were introduced into each dish, and the dishes were closed. The closed dishes were labeled and held at a temperature of 80±5° F. for 3 days. Although the larvae could easily consume the leaf within 24 to 48 hours, no more food was added. Larvae which were unable to move the length of the body, even upon stimulation, were considered dead.\nas §2"}, "[5]": {"system": "house flies (Musca domestica, L.)", "test": "Fly Bait Test", "assay_type": "in vivo", "parameters": "key: A: excellent control; B: partial control; C: no control", "settings": "adults, 500 parts of test compound per million parts of final formulation, 24 hours", "description": "as §1\nFour to 6 day old adult house flies (Musca domestica, L.) reared according to the specifications of the Chemical Specialties Manufacturing Association (Blue Book, McNair-Dorland Co., NY., 1954; pages 243-244, 261) under controlled conditions of 80±5° F. and 50±5 percent relative hmidity, were the test insects. The flies were immobilized by anesthetizing with carbon dioxide and 25 immobilized individuals, males and females, were transferred to a cage consisting of a standard food strainer about 5 inches in diameter which was inverted over a wrapping-paper-covered surface. The test compounds were formulated by diluting the stock suspension with a 10 percent (by weight) sugar solution to give a suspension containing 500 parts of test compound per million parts of final formulation, by weight. Ten milliliters of the test formulation were added to a souffle cup containing a one inch square of an absorbent cotton pad. This bait cup was introduced and centered on the blotting paper under the food strainer prior to admitting the anesthetized flies. The caged flies were allowed to feed on the bait for 24 hours, at a temperature of 80±5° F. and the relative humidity of 50±5 percent.\nas §2"}, "[6]": {"test": "Mammalian Toxicity Test (peroral toxicity)", "settings": "in vivo, po, rat, read-out: A. O. Rat (LD50)", "description": "Certain of these compositions were also evaluated to determine their peroral toxicity to mammals. The animal selected for this experiment was the rat. The test results obtained are expressed in terms of the number of milligrams of compositions per kilogram of weight of the animal required to achieve a morality rate of 50 percent (LD50)."}},
  "data": [
    {"compound": "CSC(C)=NOC(=O)N(C)SN(C)C(=O)ON=C(C)[S+](C)[O-]", "note": "(stereo not shown)", "values": [
      {"measurement": "Aphid", "setting": "[1]", "value": "A"},
      {"measurement": "Mite", "setting": "[2]", "value": "C"},
      {"measurement": "Southern Armyworm", "setting": "[3]", "value": "A"},
      {"measurement": "Mexican Bean Beetle", "setting": "[4]", "value": "A"},
      {"measurement": "Housefly", "setting": "[5]", "value": "A"},
      {"measurement": "LD50", "setting": "[6]", "value": 202, "unit": "mg/kg"}
    ]},
    {"compound": "CSC(C)=NOC(=O)N(C)SN(C)C(=O)ON=C(C)S(C)(=O)=O", "values": [
      {"measurement": "Aphid", "setting": "[1]", "value": "A"},
      {"measurement": "Mite", "setting": "[2]", "value": "A"},
      {"measurement": "Southern Armyworm", "setting": "[3]", "value": "A"},
      {"measurement": "Mexican Bean Beetle", "setting": "[4]", "value": "A"},
      {"measurement": "Housefly", "setting": "[5]", "value": "A"},
      {"measurement": "LD50", "setting": "[6]", "value": 285, "unit": "mg/kg"}
    ]},
    {"compound": "CC(=NOC(=O)N(C)SN(C)C(=O)ON=C(C)[S+](C)[O-])[S+](C)[O-]", "note": "(stereo not shown)", "values": [
      {"measurement": "Aphid", "setting": "[1]", "value": "C"},
      {"measurement": "Mite", "setting": "[2]", "value": "C"},
      {"measurement": "Southern Armyworm", "setting": "[3]", "value": "C"},
      {"measurement": "Mexican Bean Beetle", "setting": "[4]", "value": "C"},
      {"measurement": "Housefly", "setting": "[5]", "value": "C"}
    ]},
    {"compound": "CC(=NOC(=O)N(C)SN(C)C(=O)ON=C(C)S(C)(=O)=O)S(C)(=O)=O", "values": [
      {"measurement": "Aphid", "setting": "[1]", "value": "C"},
      {"measurement": "Mite", "setting": "[2]", "value": "C"},
      {"measurement": "Southern Armyworm", "setting": "[3]", "value": "C"},
      {"measurement": "Mexican Bean Beetle", "setting": "[4]", "value": "C"},
      {"measurement": "Housefly", "setting": "[5]", "value": "C"}
    ]}
  ]
}
